Test results taken from patent US20200337992A1, “Auricular Cleaning Composition” (priority 2015, published 2020).

Experiment: In vitro cerumenolytic effect test on synthetic cerumen
Details: for % of cerumen removed: Table 3, total after four successive applications; for cerumenolytic activity / cerumenolytic effect: cf. FIG. 1, in vitro test
Description: Thus, the selected formula of the synthetic cerumen which makes it possible to evaluate the in vitro cerumenolytic effect of agents is the following: [table] In order to select a new combination of cerumenolytic agents, the cerumenolytic effect test was employed using the cerumen described in the table above. […] The distribution is carried out in such a way that the cerumen is present only in the bottom of the tube and not on the edges or the opening, which could distort the results. The tubes are then left to stand for the amount of time required for the cerumen to solidify. The distribution is carried out the day before the in vitro test in order to leave the cerumen with a minimum of 24 h to cool and solidify. The dimensions of the test tube, the temperature at which the test was carried out and the amount of synthetic cerumen were chosen to represent as faithfully as possible, in vitro, the dog ear canal. According to these parameters, the procedure followed for measuring the in vitro effectiveness of an agent or of a combination of agents having a cerumenolytic effect is the following: =>The test tube containing only the cerumen is weighed before the test. […] =>The test tube is then attached to a stirring turbine and immersed in a bath of water heated to 35° C. (the water height is sufficient for the content of the tube (cerumen+test product) to be immersed. =>The stirring is maintained for 20 minutes at 50 rpm. […] This step makes it possible to remove the product and the cerumen debris detached by the cerumenolytic agent. =>At the end of the time elapsed, the tube is weighed to evaluate the amount of cerumen removed. =>This process is carried out four times in a row, on each same tube, in order to simulate and evaluate the application number required to remove the cerumen plug present in the dog ear canal. Each time, the cerumen remaining at the bottom of the tube is dried and then weighed. […] As previously indicated, in order to check the effectiveness of an agent, the test tubes are weighed before the test is carried out and after the phase of leaving to stand upside down for 1 h. The removal of the cerumen is, according to this process, evaluated as for this example: =>Weight of the tube A before test 1: 3.493 g and weight of the tube A after test 1: 3.449 g =>Percentage of cerumen removed: […] The percentages are thus calculated for each test: from 1 to 4. The total percentage of cerumen removed is obtained after having repeated the operation successively four times for one and the same tube.

[1] = 500 mg synthetic cerumen, 2 ml test product, 35° C., 20 minutes at 50 rpm

Row | Compound | % of cerumen removed [1] | cerumenolytic activity / cerumenolytic effect | % cerumen removed (after test 4) (Table 4, 500 mg synthetic cerumen, 2 ml test product, 35° C., 20 minutes at 50 rpm, after test 4)
1 | CC(C)O [100% Isopropyl alcohol, isopropyl alcohol] | 66% | about 60% | –
2 | CCOCCOCCO [100% Transcutol ®, 2-(2-ethoxyethoxy)ethanol] | 100% | ~100% | 100.0%
